target: PDE4B enzyme (Homo sapiens (Human), UniProt Q07343); test: PDE4B inhibitory activity, LANCE Ultra cAMP assay; format: biochemical; settings: 50% inhibition from cAMP to 5′AMP
Experimental: In order to evaluate the PDE4B inhibitory activity of the compounds according to the present invention, the following experiment was performed using LANCE Ultra cAMP assay kit (Perkin Elmer, U.S.A).
Particularly, 5 μl of the 3 nM cAMP dissolved reaction buffer was added to each reaction well (LANCE Ultra cAMP assay kit). Then, each example compound dilution solution (2.5 μl) and PDE4B enzyme (0.1 ng/well, BPS Biosciences, San Diego, U.S.A) were added to the well, followed by incubation for 1 hour at 37° C. Next, 5 μl of ULight-anti-cAMP detection reactant supplemented with 5 μl of Eu-cAMP tracer and 1 mM IBMX (LANCE Ultra cAMP assay kit) was added thereto, followed by incubation for 1 hour at 37° C.

PDE4B enzyme, sequence (Q07343 whole entry): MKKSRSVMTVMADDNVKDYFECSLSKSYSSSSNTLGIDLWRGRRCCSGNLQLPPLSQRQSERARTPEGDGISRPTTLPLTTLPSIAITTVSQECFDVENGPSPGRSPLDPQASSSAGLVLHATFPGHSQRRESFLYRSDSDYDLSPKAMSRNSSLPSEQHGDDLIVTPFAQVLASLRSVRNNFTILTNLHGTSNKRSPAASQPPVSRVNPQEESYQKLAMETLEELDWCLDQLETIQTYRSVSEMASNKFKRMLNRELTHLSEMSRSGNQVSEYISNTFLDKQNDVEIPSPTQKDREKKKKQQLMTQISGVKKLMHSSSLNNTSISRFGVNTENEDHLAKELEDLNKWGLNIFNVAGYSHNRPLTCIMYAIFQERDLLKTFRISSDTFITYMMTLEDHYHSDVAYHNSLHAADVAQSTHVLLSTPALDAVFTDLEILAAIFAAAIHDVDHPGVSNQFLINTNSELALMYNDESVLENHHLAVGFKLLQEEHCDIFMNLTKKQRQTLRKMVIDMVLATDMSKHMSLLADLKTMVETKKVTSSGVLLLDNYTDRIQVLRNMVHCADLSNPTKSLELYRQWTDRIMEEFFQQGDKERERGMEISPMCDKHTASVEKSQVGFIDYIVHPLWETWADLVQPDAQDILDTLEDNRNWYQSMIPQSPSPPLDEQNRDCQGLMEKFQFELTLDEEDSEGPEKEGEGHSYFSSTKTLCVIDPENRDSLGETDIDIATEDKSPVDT

IC50 | SMILES
833 nM | CCN(CC)C(=O)c1cnc(C(F)(F)F)nc1-c1ccc(OC)c(OC)c1 [Example 13, 4-(3,4-dimethoxyphenyl)-N,N-diethyl-2-(trifluoromethyl)pyrimidine-5-carboxamide]
377 nM | COc1ccc(CNC(=O)c2cnc(SC)nc2N2CCOCC2)c(OC)c1 [Example 9, N-(2,4-dimethoxybenzyl)-2-(methylthio)-4-morpholinopyrimidine-5-carboxamide]
73 nM | CSc1ncc(C(=O)Nc2c(Cl)cncc2Cl)c(N2CCOCC2)n1 [Example 10, N-(3,5-dichloropyridine-4-yl)-2-(methylthio)-4-morpholinopyrimidine-5-carboxamide]
252 nM | COc1ccc(-c2nc(C(F)(F)F)ncc2C(=O)NC2CC2)cc1OC [Example 15, N-cyclopropyl-4-(3,4-dimethoxyphenyl)-2-(trifluoromethyl)pyrimidine-5-carboxamide]
195 nM | COc1ccc(-c2nc(C(F)(F)F)ncc2C(=O)NCCN2CCOCC2)cc1OC [Example 26, 4-(3,4-dimethoxyphenyl)-N-(2-morpholinoethyl)-2-(trifluoromethyl)pyrimidine-5-carboxamide]
95 nM | COc1ccc(-c2nc(SC)ncc2C(=O)Nc2ccncc2)cc1OC [Example 3, 4-(3,4-dimethoxyphenyl)-2-(methylthio)-N-(pyridine-4-yl)pyrimidine-5-carboxamide]
74 nM | COc1ccc(CNC(=O)c2cnc(C(F)(F)F)nc2N2CCOCC2)c(OC)c1 [Example 8, N-(2,4-dimethoxybenzyl)-4-morpholino-2-(trifluoromethyl)pyrimidine-5-carboxamide]
67 nM | COc1ccc(NC(=O)c2cnc(C(F)(F)F)nc2N2CCOCC2)cc1OC [Example 11, N-(3,4-dimethoxyphenyl)-4-morpholino-2-(trifluoromethyl)pyrimidine-5-carboxamide]
881 nM | COc1ccc(NC(=O)c2cnc(SC)nc2N2CCN(CCO)CC2)cc1OC [Example 22, N-(3,4-dimethoxyphenyl)-4-(4-(2-hydroxyethyl)piperazine-1-yl)-2-(methylthio)pyrimidine-5-carboxamide]
469 nM | O=C(NCCc1c[nH]c2ccccc12)c1cnc(C(F)(F)F)nc1N1CCOCC1 [Example 24, N-(2-(1H-indole-3-yl)ethyl)-4-morpholino-2-(trifluoromethyl)pyrimidine-5-carboxamide]
61 nM | COc1ccc(NC(=O)c2cnc(C(F)(F)F)nc2-c2ccc(OC)c(OC)c2)cc1OC [Example 30, N,4-bis(3,4-dimethoxyphenyl)-2-(trifluoromethyl)pyrimidine-5-carboxamide]
367 nM | CSc1ncc(C(=O)Nc2ccc(F)cc2)c(N2CCOCC2)n1 [Example 6, N-(4-fluorophenyl)-2-(methylthio)-4-morpholinopyrimidine-5-carboxamide]
506 nM | COc1ccc(-c2nc(S(C)(=O)=O)ncc2C(=O)NC2CCOCC2)cc1OC [Example 14, 4-(3,4-dimethoxyphenyl)-2-(methylsulfonyl)-N-(tetrahydro-2H-pyran-4-yl)pyrimidine-5-carboxamide]
477 nM | COc1ccc(-c2nc(SC)ncc2C(=O)NC2CC2)cc1OC [Example 18, N-cyclopropyl-4-(3,4-dimethoxyphenyl)-2-(methylthio)pyrimidine-5-carboxamide]
166 nM | CSc1ncc(C(=O)NCCc2c[nH]c3ccccc23)c(N2CCOCC2)n1 [Example 4, N-(2-(1H-indole-3-yl)ethyl)-2-(methylthio)-4-morpholinopyrimidine-5-carboxamide]
44 nM | COc1ccc(-c2nc(C(F)(F)F)ncc2C(=O)Nc2c(Cl)cncc2Cl)cc1OC [Example 16, N-(3,5-dichloropyridine-4-yl)-4-(3,4-dimethoxyphenyl)-2-(trifluoromethyl)pyrimidine-5-carboxamide]
266 nM | COc1ccc(-c2nc(C(F)(F)F)ncc2C(=O)NC2CCOCC2)cc1OC [Example 12, 4-(3,4-dimethoxyphenyl)-N-(tetrahydro-2H-pyran-4-yl)-2-(trifluoromethyl)pyrimidine-5-carboxamide]
178 nM | COc1ccc(-c2nc(SC)ncc2C(=O)Nc2c(Cl)cncc2Cl)cc1OC [Example 2, N-(3,5-dichloropyridine-4-yl)-4-(3,4-dimethoxyphenyl)-2-(methylthio)pyrimidine-5-carboxamide]
745 nM | COc1ccc(-c2nc(SC)ncc2C(=O)Nc2cc(C(C)C)c(N)c(C(C)C)c2)cc1OC [Example 20, N-(4-amino-3,5-diisopropylphenyl)-4-(3,4-dimethoxyphenyl)-2-(methylthio)pyrimidine-5-carboxamide]
< 10 nM | COc1ccc(CCNC(=O)c2cnc(SC)nc2N2CCOCC2)cc1OC [Example 7, N-(3,4-dimethoxyphenetyl)-2-(methylthio)-4-morpholinopyrimidine-5-carboxamide]
239 nM | COc1ccc(-c2nc(SC)ncc2C(=O)NC2CCOCC2)cc1OC [Example 5, 4-(3,4-dimethoxyphenyl)-2-(methylthio)-N-(tetrahydro-2H-pyran-4-yl)pyrimidine-5-carboxamide]
189 nM | COc1ccc(-c2nc(S(C)(=O)=O)ncc2C(=O)NC2CC2)cc1OC [Example 19, N-cyclopropyl-4-(3,4-dimethoxyphenyl)-2-(methylsulfonyl)pyrimidine-5-carboxamide]
634 nM | COc1ccc(NC(=O)c2cnc(SC)nc2-c2ccc(OC)c(OC)c2)cc1OC [Example 29, N,4-bis(3,4-dimethoxyphenyl)-2-(methylthio)pyrimidine-5-carboxamide]
222 nM | COc1ccc(-c2nc(C(F)(F)F)ncc2C(=O)Nc2cc(C(C)C)c(N)c(C(C)C)c2)cc1OC [Example 21, N-(4-amino-3,5-diisopropylphenyl)-4-(3,4-dimethoxyphenyl)-2-(trifluoromethyl)pyrimidine-5-carboxamide]
860 nM | COc1ccc(-c2nc(SC)ncc2C(=O)NCCN2CCOCC2)cc1OC [Example 27, 4-(3,4-dimethoxyphenyl)-2-(methylthio)-N-(2-morpholinoethyl)pyrimidine-5-carboxamide]

Source: patent publication US12441690B2, “Benzamide derivative compound, method for preparing same, and pharmaceutical composition for treating or preventing inflammatory disease containing same as active ingredient” (SEOUL NATIONAL UNIVERSITY R&DB FOUNDATION, priority 2017, dated 2025)
